Data taken from patent publication US8883798B2, “Pyrimidine compounds inhibiting the formation of nitric oxide and prostaglandin E2, method of production thereof and use thereof” (Ustav Organicke Chemie a Biochemie Akademie Ved CR, V.V.I., priority 2011, dated 2014).

How the values were obtained:
[1] = system: acute experimental colitis in mice; experiment: Acute experimental colitis induced in mice by dextran sulphate sodium; format: in vivo, mice BALB/c; settings: for Therapeutical effect compared with 6-TG: acute colitis, approximately 10 mg/kg; for Course of induced acute experimental colitis: approximately 10 mg/kg by stomach probe for seven days; for Protection from severe forms of acute experimental colitis: daily oral doses of 2.5 mg/kg or 10 mg/kg
Description: The compounds tested were dissolved in 0.5% methylcellulose (MC, Bio-test s.r.o., Konárovice, Czech Republic; Lot: 050510BT) to acquire a final concentration of 2 mg/ml (ca 10 mg/kg). To achieve homogeneity of the suspensions, the substances in MC were disintegrated by ultrasound (sonicated; 20 s, λ=0.1 μm). Fresh suspensions were prepared every day.
The female mice of strain BALB/c at 13 weeks old were acquired from the breeding of the Institute of Physiology of the ASCR, v.v.i. Colitis was induced in them by administering a 3% solution (weight/volume) of sodium dextran sulphate (DSS, mol. weight 36-50 kDa; MP Biomedicals, Inc.) in drinking water for a period of seven days [Gastroenterology 98, 694-7, 1990]. Beginning on Day 1 of DSS administration, also a dose of the tested compound, dissolved in 100 μl MC (only a dose of methylcellulose in the case of the control animals), was administered for seven days by stomach probe.
The severity of the colitis was assessed on the last day of the experiment by scoring the clinical activity, histological parameters and measuring the length of the intestine.
The entire intestine was removed post mortem, without tightening it was placed on a ruler and measured. Shortening of the intestine is an indirect marker of infection (the shorter the intestine, the more serious the infection).
The points of the clinical activity are the sum of the individual assessments from 0 to 4 and were calculated using the following parameters: reduction of body weight (none=0 points, reduction by 1 to 5%=1 point, by 5-10%=2 points, by 10-20%=3 points, by 20%=4 points), consistency of the feces (solid=0 points; not solid, but not sticking to the anus=2 points; liquid, sticking to the anus=4 points) and bleeding (none=0 points, positive Guajak reaction=2 body, strong bleeding=4 points). This point assessment was totaled and divided by three to acquire the overall index of the activity of the disease, which was in a range from 0.0 (a healthy individual) to 4.0 (maximum activity of colitis) as described by Cooper et al. [Lab. Invest. 69, 238-49, 1993].
The descending colon was fixed in a buffered solution of 4% formaldehyde and poured into paraffin for the histological assessment. The sections were stained in hematoxylin/eosin. For every sample, four cross cuts were tested, which had been separated from one another by sections of a length of […]. The histological assessment was made for every cut by two pathologists in blind order, which provided an assessment combining the level of the infiltration of leukocytes into the layer of the lamia propria and into the submucosa along with the extent of the damage of the mucous membrane (see Table 1). The overall assessment is the average of the evaluation of the four sections, which was in a range from 0 (no signs of colitis) to 3 (severe colitis).
The differences in the intestinal length, DAI (disease activity index) and histological assessment of multiple groups were compared with the control group (MC/DSS) using a one-way analysis of the differences with a Dunnett test of multiple comparison. The differences were considered as statistically significant at P<0.05.
Compounds 28 and 51 were suspended in 0.5% methylcellulose (MC, Bio-test s.r.o., Konárovice, Czech Republic, Lot: 050510BT) to a concentration of 2 mg/ml (approximately 10 mg/kg). Sterile 0.5% MC was used as a placebo and a dose of 40 mg/each administration of 6-thioguanine (6TG) in 0.5% MC as a positive control. The administered suspensions were prepared freshly […].

[2] = system: production of nitric oxide (NO); experiment: Production of nitric oxide (NO) in cultures of mouse peritoneal cells stimulated with IFN-γ plus LPS (Griess reagent); format: cell-based, mice; settings: Table 3A; substance 50 μmol·l^−1; IFN-g plus LPS; 24 h
How it was run: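 C57BL/6 mouse peritoneal cells (2×10^6/mL) stimulated with IFN-γ (5000 pg/mL) plus LPS (100 pg/mL), compounds at 50 μmol·l^−1. Nitrite measured by Griess reagent after 24 h, expressed as % of stimulated control (set 100%); IC50 is concentration reducing NO by 50%.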

[3] = system: production of prostaglandin E2 (PGE2); experiment: Production of prostaglandin E2 (PGE2) in cultures of mouse peritoneal cells stimulated with LPS (ELISA kit); format: cell-based, mice; settings: Table 3A, substance 50 μmol·l^−1, 6 h
How it was run: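 C57BL/6 mouse peritoneal cells (3×10^6/mL) stimulated with LPS (10 ng/mL). PGE2 measured by ELISA.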

Compound	Therapeutical effect compared with 6-TG [1]	Course of induced acute experimental colitis [1]	Protection from severe forms of acute experimental colitis [1]	Production of nitric oxide in % of the controls [2]	Production of prostaglandins in % of the controls [3]
CCCCc1c(Cl)nc(NC=O)nc1Cl [Substance 51]	minimally equal with the effect of 6-TG	statistically significant reduction of the course of the induced (severe form) experimental colitis	protect mice from the severe forms of acute experimental colitis	8.37 ± 2.77 % of the controls	5.22 ± 2.66 % of the controls
CCCCc1c(Cl)nc(N)nc1Cl [Substance 28]	minimally equal with the effect of 6-TG	statistically significant reduction of the course of the induced (severe form) experimental colitis	protect mice from the severe forms of acute experimental colitis	53.23 ± 5.79 % of the controls	13.14 ± 0.13 % of the controls
